Measurements from patent US20240067657A1, “AMIDO-SUBSTITUTED PYRIDYL COMPOUNDS AND METHODS OF USE THEREOF FOR THE TREATMENT OF HERPESVIRUSES” (Merck Sharp & Dohme LLC, priority 2020, published 2024).
Read-outs that look alike come from different tables or passages of the source.

Key:
[1] = target: T1, Human cytomegalovirus DNA polymerase (Human cytomegalovirus, UniProt P08546); experiment: HCMV polymerase assay (AlphaLISA, IC50); format: biochemical; conditions: polymerase assay of Example 190
T1 construct: made in house; host or cells: SF21 insect cells (baculovirus vector)
Summary of the method: (§1)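 Baculovirus-expressed polymerase (HCMV 0.2 nM, VZV 0.4 nM final) preincubated 30 min at room temperature with compound in pH 7.5 HEPES buffer; reaction started with 1.6 nM DIG-primer/template and nM dNTPs including biotin-dUTP, run 60 min at 37° C. Incorporation detected by AlphaLISA; IC50 from 4-parameter fit.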

[2] = target: T2, varicella zoster virus DNA polymerase (Varicella-zoster virus, UniProt P09252); experiment: VZV polymerase assay (AlphaLISA, IC50); format: biochemical; conditions: polymerase assay of Example 190
T2 construct: made in house; host or cells: SF21 insect cells (baculovirus vector)
Summary of the method: as §1

[3] = tested on: HCMV Strain AD169 in MRC-5 cells; experiment: Viral qPCR assay HCMV (V0/V1, V2/V3), EC50; format: cell-based; conditions: Human betaherpesvirus 5, AD169, MRC5, viral qPCR assay of Example 191; read-out: HCMV Cell (EC50)
Summary of the method: (§2)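 Infected cells added to compounds (10-point 3-fold series), ~72 h at 37 °C, then lysed; viral genomes by TaqMan qPCR against plasmid standard, normalized to PPIA in V0/V1 only, EC50 from 4-parameter fit. HCMV AD169, 0.05-0.1 pfu/cell, ± 50% FBS; VZV 0.04-0.1 pfu/cell; HSV-1 F 0.0005-0.004 pfu/cell.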

[4] = tested on: VZV in MeWo or MRC5 cells; experiment: Viral qPCR assay VZV (V0/V1, V2/V3), EC50; format: cell-based; conditions: 10%
Summary of the method: as §2

[5] = tested on: HSV-1 Strain F in Vero or MRC5 cells; experiment: Viral qPCR assay HSV-1 (V0/V1, V2/V3), EC50; format: cell-based; conditions: 10%
Summary of the method: as §2

[6] = Human alphaherpesvirus 3, MeWo, MEWO cells, read-out: VZV Cell (EC50) MEWO 10%
[7] = Human alphaherpesvirus 1, Vero, VERO cells, read-out: HSV1 Cell (EC50) VERO 10%
[8] = Human alphaherpesvirus 3, MRC5, MRC5 cells, read-out: VZV Cell (EC50) MRC5 10%
[9] = Human alphaherpesvirus 1, MRC5, MRC5 cells, read-out: HSV1 Cell (EC50) MRC5 10%

T1 sequence (P08546 whole entry): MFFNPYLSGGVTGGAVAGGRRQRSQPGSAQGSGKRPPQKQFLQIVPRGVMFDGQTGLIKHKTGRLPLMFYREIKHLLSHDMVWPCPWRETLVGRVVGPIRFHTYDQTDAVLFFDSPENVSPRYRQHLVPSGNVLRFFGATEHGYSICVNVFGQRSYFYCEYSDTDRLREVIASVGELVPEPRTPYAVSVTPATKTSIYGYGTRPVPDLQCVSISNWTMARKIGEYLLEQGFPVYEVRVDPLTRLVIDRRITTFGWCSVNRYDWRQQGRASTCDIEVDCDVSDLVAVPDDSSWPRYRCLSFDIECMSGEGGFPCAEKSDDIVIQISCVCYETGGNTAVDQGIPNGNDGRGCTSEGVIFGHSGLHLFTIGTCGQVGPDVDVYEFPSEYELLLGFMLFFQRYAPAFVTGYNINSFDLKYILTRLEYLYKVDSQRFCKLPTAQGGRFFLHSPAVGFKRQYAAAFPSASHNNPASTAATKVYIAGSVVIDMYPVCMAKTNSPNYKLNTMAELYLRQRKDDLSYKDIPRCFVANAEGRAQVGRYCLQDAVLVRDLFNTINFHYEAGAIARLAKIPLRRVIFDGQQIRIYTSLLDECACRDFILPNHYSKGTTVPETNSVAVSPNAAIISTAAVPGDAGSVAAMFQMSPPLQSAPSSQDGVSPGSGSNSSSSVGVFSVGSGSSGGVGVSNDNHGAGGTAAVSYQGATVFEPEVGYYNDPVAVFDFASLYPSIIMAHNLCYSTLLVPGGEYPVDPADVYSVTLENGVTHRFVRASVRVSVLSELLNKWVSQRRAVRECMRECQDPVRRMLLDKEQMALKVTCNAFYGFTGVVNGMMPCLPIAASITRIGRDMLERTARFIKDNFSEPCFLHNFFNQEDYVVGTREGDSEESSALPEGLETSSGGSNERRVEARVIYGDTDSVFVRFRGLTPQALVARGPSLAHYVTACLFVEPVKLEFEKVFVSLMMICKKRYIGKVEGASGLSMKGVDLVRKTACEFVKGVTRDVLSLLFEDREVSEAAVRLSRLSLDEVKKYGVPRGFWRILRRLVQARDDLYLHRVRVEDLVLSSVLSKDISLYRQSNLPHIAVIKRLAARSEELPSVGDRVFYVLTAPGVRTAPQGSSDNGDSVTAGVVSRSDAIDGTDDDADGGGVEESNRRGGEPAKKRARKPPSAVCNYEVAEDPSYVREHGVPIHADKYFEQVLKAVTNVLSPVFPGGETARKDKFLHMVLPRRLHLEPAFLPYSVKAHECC
T2 sequence (P09252 whole entry): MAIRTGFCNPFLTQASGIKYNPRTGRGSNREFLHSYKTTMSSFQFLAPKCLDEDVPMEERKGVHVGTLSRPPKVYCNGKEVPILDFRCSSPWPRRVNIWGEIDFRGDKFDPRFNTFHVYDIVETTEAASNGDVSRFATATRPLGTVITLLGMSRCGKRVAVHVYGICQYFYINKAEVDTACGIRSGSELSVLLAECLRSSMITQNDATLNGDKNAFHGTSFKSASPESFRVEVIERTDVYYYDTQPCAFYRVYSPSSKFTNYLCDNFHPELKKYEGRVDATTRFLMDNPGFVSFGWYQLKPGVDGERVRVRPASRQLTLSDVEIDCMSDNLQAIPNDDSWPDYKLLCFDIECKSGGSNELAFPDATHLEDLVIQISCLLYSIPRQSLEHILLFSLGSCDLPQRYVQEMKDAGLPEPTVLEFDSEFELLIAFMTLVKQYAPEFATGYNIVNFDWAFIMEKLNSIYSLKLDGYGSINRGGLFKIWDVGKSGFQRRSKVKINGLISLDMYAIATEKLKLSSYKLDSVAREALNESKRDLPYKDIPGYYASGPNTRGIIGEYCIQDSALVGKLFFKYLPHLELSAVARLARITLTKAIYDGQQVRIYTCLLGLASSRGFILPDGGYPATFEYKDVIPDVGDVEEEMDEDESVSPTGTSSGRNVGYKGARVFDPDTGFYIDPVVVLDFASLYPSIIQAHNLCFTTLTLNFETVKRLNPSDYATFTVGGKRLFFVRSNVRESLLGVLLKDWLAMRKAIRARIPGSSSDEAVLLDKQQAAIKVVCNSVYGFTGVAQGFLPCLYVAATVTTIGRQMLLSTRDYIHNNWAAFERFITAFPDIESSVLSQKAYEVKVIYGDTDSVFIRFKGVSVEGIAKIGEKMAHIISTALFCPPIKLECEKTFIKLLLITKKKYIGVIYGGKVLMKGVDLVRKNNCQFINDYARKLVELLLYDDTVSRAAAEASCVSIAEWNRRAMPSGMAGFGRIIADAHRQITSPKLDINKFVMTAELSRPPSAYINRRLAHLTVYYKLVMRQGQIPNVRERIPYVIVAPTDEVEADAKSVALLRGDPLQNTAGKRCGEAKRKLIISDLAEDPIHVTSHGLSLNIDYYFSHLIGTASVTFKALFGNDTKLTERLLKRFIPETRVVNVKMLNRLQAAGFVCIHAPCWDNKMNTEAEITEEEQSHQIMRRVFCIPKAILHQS

| IC50 [1] | IC50 [2] | SMILES | EC50 [3] | EC50 [4, 6] | EC50 [5, 7] | EC50 [4, 8] | EC50 [5, 9] |
| --- | --- | --- | --- | --- | --- | --- | --- |
| 147 nM | 114 nM | CC(C)CCn1cc(-c2cnc(C(=O)NCc3ccc(Cl)cc3)cc2O[C@H]2CCN3C(=O)OC[C@@H]3C2)cn1 (racemic) [Compound 9] | 582 nM | 859 nM | 1130 nM | – | – |
| 26.2 nM | 33.3 nM | O=C(NCc1ccc(Cl)cc1F)c1cc(O[C@H]2CCN3C(=O)OC[C@@H]3C2)c(-c2cnn(C(F)F)c2)cn1 [Compound 8] | 440 nM | 368 nM | 259 nM | – | – |
| 1.6 nM | ≤ 0.444 nM | O=C(NCc1ccc(Cl)cc1)c1cc(O[C@H]2CCN3C(=O)OC[C@@H]3C2)c(-c2cnco2)cn1 [Compound 24] | 98.7 nM | – | – | 121 nM | 56.4 nM |
| 238 nM | 181 nM | CC(=O)N1CCC(Oc2cc(C(=O)NCc3ccc(Cl)cc3)ncc2-c2ccn(C)n2)CC1 [Compound 61] | 484 nM | 81.6 nM | 108 nM | – | – |
| 23.1 nM | 21 nM | O=C(NCc1ccc(Cl)cc1)c1cc(O[C@H]2CCN3C(=O)OC[C@@H]3C2)c(-c2cnn(CC(F)(F)F)c2)cn1 [Compound 17] | 380 nM | 368 nM | 426 nM | – | – |
| 70.5 nM | 51.2 nM | CC(C)Cn1cc(-c2cnc(C(=O)NCc3ccc(Cl)cc3)cc2O[C@H]2CCN3C(=O)OC[C@@H]3C2)cn1 (racemic) [Compound 11] | 685 nM | 712 nM | 813 nM | – | – |
| 189 nM | 105 nM | O=C(NCc1ccc(Cl)cn1)c1cc(O[C@H]2CCN3C(=O)OC[C@@H]3C2)c(-c2cnn(C(F)F)c2)cn1 [Compound 90] | 1040 nM | 737 nM | 853 nM | 5990 nM | 2550 nM |
| 77.5 nM | 44.8 nM | O=C(NCc1ccc(Cl)cc1)c1cc(O[C@H]2CCN3C(=O)OC[C@@H]3C2)c(CNC2CC2)cn1 [Compound 141] | 554 nM | – | 287 nM | 2210 nM | – |
| 14.7 nM | 12.7 nM | COCCn1ccc(-c2cnc(C(=O)NCc3ccc(Cl)cc3)cc2O[C@H]2CCN3C(=O)OC[C@@H]3C2)n1 [Compound 28] | 325 nM | 422 nM | 327 nM | – | – |
| 54.4 nM | 31.1 nM | O=C(NCc1ccc(Cl)cc1)c1cc(O[C@H]2CCN3C(=O)OC[C@@H]3C2)c(CCO)cn1 [Compound 112] | 635 nM | 482 nM | 3260 nM | – | – |
| 11.6 nM | 6.53 nM | Cn1cnc(-c2cnc(C(=O)NCc3ccc(Cl)cc3)cc2O[C@H]2CCN3C(=O)OC[C@@H]3C2)c1 [Compound 38] | 72.8 nM | 53.2 nM | 194 nM | – | ≥ 80200 nM |
| 6.24 nM | 2.72 nM | O=C(NCc1ccc(Cl)cc1)c1cc(O[C@H]2CCN3C(=O)OC[C@@H]3C2)c(-c2cnc(C3CC3)o2)cn1 [Compound 33] | 121 nM | – | – | 194 nM | 125 nM |
| 109 nM | 32.5 nM | CC(=O)N1CCC(Oc2cc(C(=O)NCc3ccc(Cl)cc3)ncc2-c2cn[nH]c2)CC1 [Compound 69] | 678 nM | 351 nM | 1110 nM | – | – |
| 15.9 nM | 6.03 nM | O=C(NCc1ccc(Cl)cc1)c1cc(O[C@H]2CCN3C(=O)OC[C@@H]3C2)c(-c2cscn2)cn1 [Compound 37] | 115 nM | 20.8 nM | 35.6 nM | 130 nM | 100 nM |
| 224 nM | 197 nM | Cc1ccn(-c2cnc(C(=O)NCc3ccc(Cl)cc3)cc2O[C@H]2CCN3C(=O)OC[C@@H]3C2)n1 [Compound 106] | 923 nM | 288 nM | 575 nM | – | – |
